Tests used:
TDP1 = TDP1 (Homo sapiens, UniProt Q9NUW8); assay: TDP1 inhibition fluorescence assay (quenched fluorescent single-stranded oligonucleotide substrate); format: biochemical; conditions: substrate 5′-FAM-AGGATCTAAAAGACTT-BHQ-3′, repeated at least three times, read-out: TDP1 Inhibition (IC50 ± SD)
Text: Considering the chiral properties of compounds will affect their activity, all of the obtained compounds, including racemates and enantiomers, were screened for TDP1 inhibition through a fluorescence assay using a quenched fluorescent single-stranded oligonucleotide (5′-FAM-AGGATCTAAAAGACTT-BHQ-3′) as substrate. […] To further investigate the mechanism of the TDP1 inhibitory activity of (+)-6 and (−)-6, a hypothetical binding mode was built using in silico docking from the X-ray crystal structure of humanized TDP1-inhibitor (PDB: 6DJD) to evaluate the mode of interactions of (+)-6 and (−)-6 with TDP1. The inhibitor was docked into the binding site. The tricyclic core of (+)-6 binds to the DNA binding groove in the proximity of the catalytically important residue His263, indicating a potential π–π stacking interaction stabilizing the inhibitor TDP1 complex. Three hypothetical hydrogen bonds were observed between the phenol hydroxy group and the amide group of residue Asn516 (2.9 Å), the 1″-hydroxy group and Ser518 residue (3.0 Å), and the pyran O atom and Ser400 residue (3.5 Å), which might contribute to TDP1 inhibition. Similarly, the polycyclic core scaffold of (−)-6 also lied along the DNA binding groove (Figure 7B), and the H-bonds (3.1 Å) between the phenol hydroxy group and the amide group of residue Asn516 was also observed. In addition, two H-bonds formed between the 2″-hydroxyl group and Ser400 residue (2.5 Å) and the pyran oxygen atom and phenol hydroxy group of Tyr204 residue (3.1 Å). […] The gold score values of (+)-6 and (−)-6 were 55.62 and 44.90, respectively. […] The mechanism of the TDP1 inhibitory activity of (±)-6 remains to be validated by biophysical assays in further research.
The TDP1 inhibition was tested through a fluorescence assay according to a previously reported method. Detailed procedures are included in the Supporting Information. […]
Briefly, TDP1 solution (20 μL/well, 0.02 μL of purified TDP1 (100 nM) in 10 mM Tris-HCl, pH 7.5, 50 mM KCl, 1 mM EDTA, 1 mM DTT) was dispensed into wells of a white 384-well plate (NEST). The tested compound solution in DMSO (5 μL) was pinned into assay plates and incubated at room tempera-ture for 30 min. During this time, the plates were read by a Flash multimode reader (Molecular Devices) at Ex485/Em510 nm to identify false-positive compound that had autofluorescence. The linear oligonucle-otide substrate 5′-FAM-AGGATCTAAAAGACTT-BHQ-3′ (25 μL, 35 nM) was dispensed into the wells to start the reaction. The whole plate was immediately read five times using a kinetic read on the Flash […]
multimode reader (Molecular Devices) (Ex485/Em510 nm). TDP1 percentage inhibition of the tested com-pound was calculated by comparing the rate of increase in fluorescence throughout time for the com-pound-treated wells to that of DMSO control wells. […]

[1] = Measurement of fluorescent properties in MeOH; format: physicochemical; conditions: 300 μg/mL in MeOH; for Stokes Shift / λ em: λexc = 365 nm
Method: (§1) Each probe was prepared at 300 μg/mL in MeOH. The absorption spectra were recorded from 200 to 400 nm using a Chirascan circular dichroism spectrometer ([…]). The fluorescence spectra were recorded from 385 to 750 nm with an excitation wavelength of 365 nm using Edinburgh Instruments FLS1000. For UV-irradiated probes, each probe was exposed to 365 nm UV light from a handheld UV lamp for a certain time, and the fluorescence spectra were then recorded using the same method mentioned above.

[2] = Change in fluorescence emission upon photoirradiation with 365 nm UV light; format: physicochemical; conditions: MeOH
Method: In addition, the fluorescent properties of 1–6 were also evaluated. […] Meanwhile, compounds 1–6 with the concentration of […] were exposed to […] UV light, and their fluorescence emission spectra were recorded (Figure 10) as a control experiment because the assay used to assess TDP1 inhibition was a fluorescence assay. […] In addition, during the TDP1 inhibition assay, the tested compound solutions were read by a Flash multimode reader at Ex485/Em510 nm to identify false-positive compounds that had autofluorescence.
as §1

Chain of TDP1 (Q9NUW8 whole entry): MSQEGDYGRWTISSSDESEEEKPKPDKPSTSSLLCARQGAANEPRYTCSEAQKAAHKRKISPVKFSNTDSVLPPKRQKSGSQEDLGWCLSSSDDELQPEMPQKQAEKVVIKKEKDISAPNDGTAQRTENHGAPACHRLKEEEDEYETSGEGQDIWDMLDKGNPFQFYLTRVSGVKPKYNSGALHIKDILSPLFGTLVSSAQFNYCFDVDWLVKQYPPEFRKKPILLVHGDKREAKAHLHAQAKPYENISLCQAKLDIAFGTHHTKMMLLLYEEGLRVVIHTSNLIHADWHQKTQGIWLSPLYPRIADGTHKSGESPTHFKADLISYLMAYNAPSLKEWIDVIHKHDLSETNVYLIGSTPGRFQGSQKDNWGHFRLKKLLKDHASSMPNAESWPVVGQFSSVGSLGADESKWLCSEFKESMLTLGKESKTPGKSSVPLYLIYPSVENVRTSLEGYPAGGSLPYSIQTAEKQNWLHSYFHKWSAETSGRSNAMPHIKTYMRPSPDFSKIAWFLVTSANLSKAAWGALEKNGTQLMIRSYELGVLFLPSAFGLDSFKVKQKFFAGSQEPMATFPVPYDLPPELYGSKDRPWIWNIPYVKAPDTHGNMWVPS

`CCCCCC1OC(OC)c2c3c(cc(O)c2C1OC)C=CC(C)(C)O3` (racemic) [(±)-1, (±)-Eurotiumide G] gave an IC50 (TDP1) greater than 100 µM, a ε ([1]; listed as 1) of 125388.61 M^–1cm^–1 and a λ abs ([1]; listed as 1) of 221 nm. For the same compound, the “φ F” value ([1]; listed as 1) was 0.0392, the “Stokes Shift” value ([1]; listed as 1) was 224 nm and the λ em ([1]; listed as 1) was 445 nm. For the same compound, the “change of fluorescence with time upon 365 nm irradiation (photobleaching)” value (shortened to “change of fluorescence”) ([2]; listed as 1) was “increased substantially with time”.
Compound `CCCCCC1OC(OC)c2c3c(cc(O)c2C1OC)C=CC(C)(C)O3` (racemic) [(±)-2, (±)-Eurotiumide F] has an IC50 (TDP1) of 57.8 ± 2.2 µM, a ε ([1]; listed as 2) of 70590.11 M^–1cm^–1 and a λ abs ([1]; listed as 2) of 223 nm. The “φ F” value ([1]; listed as 2) was 0.0225, the “Stokes Shift” value ([1]; listed as 2) was 241 nm and the λ em ([1]; listed as 2) was 464 nm. For the same compound, the “change of fluorescence” value ([2]; listed as 2) was “responded similarly to 1 but with a smaller magnitude improvement in fluorescence”.
In the case of `CCCCCC1OC(OC)c2c3c(cc(O)c2C1OC)C=C(OC)C(C)(C)O3` (racemic) [(±)-3, (±)-Aspergiletal A], the IC50 (TDP1) is reported as greater than 100 µM, the ε [1] is reported as 61279.01 M^–1cm^–1 and the λ abs [1] is reported as 206 nm. The “φ F” value [1] was 0.0048, the “Stokes Shift” value [1] was 266 nm and the λ em [1] was 472 nm. The “change of fluorescence” value [2] was “significant loss of fluorescence with time”.
Work on `CCCCCC1OC(OC)c2c3c(cc(O)c2C1OC)CC(OC)C(C)(C)O3` (racemic) [(±)-4, (±)-Aspergiletal B] yielded an IC50 (TDP1) greater than 100 µM, a ε [1] of 208307.41 M^–1cm^–1 and a λ abs [1] of 225 nm. For the same compound, the “φ F” value [1] was 0.0649, the “Stokes Shift” value [1] was 203 nm and the λ em [1] was 428 nm. For the same compound, the “change of fluorescence” value [2] was “inert to photobleaching”.
`CCCCCC1OC(OC)c2c3c(cc(O)c2C1OC)CC(O)C(C)(C)O3` (racemic) [(±)-5, (±)-Aspergiletal C] gave an IC50 (TDP1) greater than 100 µM, a ε [1] of 106186.60 M^–1cm^–1 and a λ abs [1] of 203 nm. For the same compound, the “φ F” value [1] was 0.0482, the “Stokes Shift” value [1] was 229 nm and the λ em [1] was 432 nm. The “change of fluorescence” value [2] was “significant loss of fluorescence with time”.
`CCCCCC1OC(OC)c2c3c(cc(O)c2C1OC)C(O)C(O)C(C)(C)O3` (racemic) [(±)-6, (±)-Aspergiletal D] showed an IC50 (TDP1) of 6.5 ± 0.73 µM, a ε [1] of 127827.28 M^–1cm^–1 and a λ abs [1] of 225 nm. The “φ F” value [1] was 0.0416, the “Stokes Shift” value [1] was 199 nm and the λ em [1] was 424 nm. For the same compound, the “change of fluorescence” value [2] was “significant loss of fluorescence with time”.
`CCCCCC1OC(OC)c2c3c(cc(O)c2C1OC)C=CC(C)(C)O3` (single isomer, unassigned; (-)) [(−)-1, eurotiumide G] showed an IC50 (TDP1) greater than 100 µM.
With `CCCCC[C@H]1O[C@H](OC)c2c3c(cc(O)c2[C@H]1OC)C=CC(C)(C)O3` [(+)-1, eurotiumide G] the IC50 (TDP1) was greater than 100 µM.
In the case of `CCCCC[C@H]1O[C@H](OC)c2c3c(cc(O)c2[C@@H]1OC)C=CC(C)(C)O3` [(+)-2, eurotiumide F], the IC50 (TDP1) is reported as greater than 100 µM.
`CCCCC[C@H]1O[C@H](OC)c2c3c(cc(O)c2[C@H]1OC)C=C(OC)C(C)(C)O3` [(+)-3, Aspergiletal A] gave an IC50 (TDP1) greater than 100 µM.
In the case of `CCCCC[C@H]1O[C@H](OC)c2c3c(cc(O)c2[C@H]1OC)C[C@H](OC)C(C)(C)O3` [(+)-4, Aspergiletal B], the IC50 (TDP1) is reported as greater than 100 µM.
`CCCCC[C@H]1O[C@H](OC)c2c3c(cc(O)c2[C@H]1OC)C[C@H](O)C(C)(C)O3` [(+)-5, Aspergiletal C] showed an IC50 (TDP1) greater than 100 µM.
With `CCCCC[C@H]1O[C@H](OC)c2c3c(cc(O)c2[C@H]1OC)[C@H](O)[C@H](O)C(C)(C)O3` [(+)-6, Aspergiletal D] the IC50 (TDP1) was 27.8 ± 1.73 µM.
Work on `CCCCC[C@@H]1O[C@@H](OC)c2c3c(cc(O)c2[C@H]1OC)C=CC(C)(C)O3` [(−)-2, eurotiumide F] yielded an IC50 (TDP1) greater than 100 µM.
Compound `CCCCC[C@@H]1O[C@@H](OC)c2c3c(cc(O)c2[C@@H]1OC)C=C(OC)C(C)(C)O3` [(−)-3, Aspergiletal A] has an IC50 (TDP1) greater than 100 µM.
With `CCCCC[C@@H]1O[C@@H](OC)c2c3c(cc(O)c2[C@@H]1OC)C[C@@H](OC)C(C)(C)O3` [(−)-4, Aspergiletal B] the IC50 (TDP1) was greater than 100 µM.
Work on `CCCCC[C@@H]1O[C@@H](OC)c2c3c(cc(O)c2[C@@H]1OC)C[C@@H](O)C(C)(C)O3` [(−)-5, Aspergiletal C] yielded an IC50 (TDP1) greater than 100 µM.
`CCCCC[C@@H]1O[C@@H](OC)c2c3c(cc(O)c2[C@@H]1OC)[C@@H](O)[C@@H](O)C(C)(C)O3` [(−)-6, Aspergiletal D] gave an IC50 (TDP1) of 37.3 ± 3.63 µM.
